The text below walks through data of PMC12345137 (mBio, 2025).

One assay deals with S. aureus agr-II (Staphylococcus aureus, UniProt O33587). In words: cell-based. The following applies: fluorescent reporter strain; peptides tested at 1000, 50, 2.5, 0.125 nM or in dose-response. As for the experimental part:
(§1) Peptides were evaluated for the ability to interfere with agr-mediated quorum sensing in S. aureus (AH1677, AH430, AH1747, and AH1872 for agr-I–IV, respectively) ([40]) using reporter strains expressing yellow fluorescent protein (YFP) upon agr activation. Interference with agr-mediated quorum sensing in S. epidermidis (AH3408, AH3623, and AH3409 for agr-I–III, respectively) ([45]), and S. lugdunensis (AH4031 for agr-I) ([37]) was evaluated using reporter strains expressing superfolder green fluorescent protein (sGFP) upon agr activation. Overnight cultures of the reporter strains were grown in TSB medium containing chloramphenicol (CAM, 10 μg/mL for S. aureus) or erythromycin (ERM, 10 μg/mL of S. epidermidis and S. lugdunensis) and diluted 1:100 in fresh TSB medium containing the same antibiotic. Assays were performed in sterile black 96-well plates with a clear bottom. […] DMSO stock solutions of peptides (1 mM) were diluted in TSB media and added (15 μL) in technical triplicate to the 96-well plate, followed by diluted bacterial overnight cultures (135 μL). Control wells for 100% agr activity were wells replacing the peptide solution with TSB medium (15 μL). […] Wells containing 150 μL TSB medium were used to measure background fluorescence. The 96-well plates were incubated in a humidified incubator at 37°C shaking at 1,000 rpm for 22–24 h and fluorescence (for GFP: excitation 479 nm, emission 520 nm; for YFP: excitation 500 nm, emission 541 nm; automatic gain), and OD600 values were subsequently measured using a plate reader. Background fluorescence was subtracted from all wells and further normalized to the corresponding OD600 value of the respective wells. The average fluorescence of control wells was used as a relative measure for 100% activation of the agr-circuit, and bar graphs were generated using GraphPad Prism 10.4 software. All assays were performed in at least a biological duplicate.
(§2) Overnight cultures of the reporter strains were grown in TSB medium containing chloramphenicol (CAM, 10 μg/mL for S. aureus) or erythromycin (ERM, 10 μg/mL of S. epidermidis and S. lugdunensis) and diluted 1:100 in fresh TSB medium containing the same antibiotic. Assays were performed in sterile black 96-well plates with clear bottoms. Peptide solutions (15 μL) in 1:5 serial dilutions from DMSO stock solutions (1 mM) in TSB medium were added to the 96-well plate in technical duplicate followed by diluted bacterial overnight cultures (135 μL). Control wells for 100% agr activity were wells replacing the peptide solution with TSB medium (15 μL). Wells containing 150 μL TSB medium were used to measure background fluorescence. The 96-well plates were incubated in a humidified incubator at 37°C shaking at 1,000 rpm for 22–24 h and fluorescence (for GFP: excitation 479 nm, emission 520 nm; for YFP: excitation 500 nm, emission 541 nm; automatic gain), and OD600 values were subsequently measured using a plate reader. Background fluorescence was subtracted from all wells and further normalized to the corresponding OD600 value of the respective wells. The average fluorescence of control wells was used as a relative measure for 100% activation of the agr-circuit. Relative agr activity was plotted to obtain IC50 values by non-linear regression with variable slope using GraphPad Prism 10.4 software. All assays were performed in biological triplicate.

For the next assay, the target named is S. lugdunensis agr-I (Staphylococcus lugdunensis, UniProt Q8VSW5). The assay can be described thus: cell-based. The following applies: fluorescent reporter strain; peptides tested at 1000, 50, 2.5, 0.125 nM or in dose-response. Here is the method:
as §1, §2

A further assay has as its target S. aureus agr-III (Staphylococcus aureus, UniProt O33590). The assay can be described thus: cell-based. The following applies: fluorescent reporter strain; peptides tested at 1000, 50, 2.5, 0.125 nM or in dose-response. As for the experimental part:
as §1, §2

For the next assay, the target named is S. epidermidis agr-I (Staphylococcus epidermidis, UniProt Q5HMY3). In words: cell-based. The format is cell-based. The following applies: fluorescent reporter strain; peptides tested at 1000, 50, 2.5, 0.125 nM or in dose-response. Here is the method:
as §1, with “μL).” for “μL). Control wells for 100% agr activity were wells replacing the peptide solution with TSB medium (15 μL).”
as §2, with “Control wells for 100% agr activity were wells replacing the peptide solution with TSB medium (15 μL).” left out

Another assay addresses S. aureus agr-I (Staphylococcus aureus, UniProt O07911). In words: Fluorescence reporter assay for agr interference, screening and IC50 (AH1677, P3-YFP). It counts as cell-based. The conditions noted are these: fluorescent reporter strain; peptides tested at 1000, 50, 2.5, 0.125 nM or in dose-response. As for the experimental part: as §1, with “μL).” for “μL). Control wells for 100% agr activity were wells replacing the peptide solution with TSB medium (15 μL).”
as §2, with “Control wells for 100% agr activity were wells replacing the peptide solution with TSB medium (15 μL).” left out

For a further assay, the target named is SA AgrC-IV (Staphylococcus aureus, UniProt Q309Z2). The conditions noted are these: 100 nM cognate AIP; ± SEM; -b = no inhibition recorded at the highest AIP concentration tested; determined previously; ref (1); read-out: IC50, SA AgrC-IV, b-lactamase assay; cited from earlier work.
Another assay addresses SA AgrC-III (Staphylococcus aureus, UniProt O33590). The conditions noted are these: 100 nM cognate AIP; ± SEM; -b = no inhibition recorded at the highest AIP concentration tested; determined previously; ref (1); read-out: IC50, SA AgrC-III, b-lactamase assay; cited from earlier work.
The target of a further assay is S. aureus agr-IV (Staphylococcus aureus, UniProt Q309Z2). The assay can be described thus: cell-based. The format is cell-based. The following applies: fluorescent reporter strain; peptides tested at 1000, 50, 2.5, 0.125 nM or in dose-response. In outline:
(§3)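 Staphylococcal agr reporters were grown with peptide for 22–24 h at 37°C. Background-corrected fluorescence per OD600 was expressed as a percentage of untreated control, and IC50 was obtained by variable-slope regression.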

The target in the next assay is S. epidermidis agr-III (Staphylococcus epidermidis, UniProt Q8VSX2). The assay can be described thus: cell-based. It counts as cell-based. The following applies: fluorescent reporter strain; peptides tested at 1000, 50, 2.5, 0.125 nM or in dose-response. Summed up: as §3
The target of another assay is S. epidermidis agr-II (Staphylococcus epidermidis, UniProt Q8VSX5). In words: cell-based. The format is cell-based. The conditions noted are these: fluorescent reporter strain; peptides tested at 1000, 50, 2.5, 0.125 nM or in dose-response. Summed up:
as §3

For another assay, the target named is SA AgrC-II (Staphylococcus aureus, UniProt O33587). The conditions noted are these: 100 nM cognate AIP; ± SEM; -b = no inhibition recorded at the highest AIP concentration tested; determined previously; ref (1); read-out: IC50, SA AgrC-II, b-lactamase assay; cited from earlier work.
The target in another assay is SA AgrC-I (Staphylococcus aureus, UniProt O07911). The following applies: 100 nM cognate AIP; ± SEM; -b = no inhibition recorded at the highest AIP concentration tested; determined previously; ref (1); read-out: IC50, SA AgrC-I, b-lactamase assay; cited from earlier work.
Chain of SA AgrC-I (O07911 entry or part of it): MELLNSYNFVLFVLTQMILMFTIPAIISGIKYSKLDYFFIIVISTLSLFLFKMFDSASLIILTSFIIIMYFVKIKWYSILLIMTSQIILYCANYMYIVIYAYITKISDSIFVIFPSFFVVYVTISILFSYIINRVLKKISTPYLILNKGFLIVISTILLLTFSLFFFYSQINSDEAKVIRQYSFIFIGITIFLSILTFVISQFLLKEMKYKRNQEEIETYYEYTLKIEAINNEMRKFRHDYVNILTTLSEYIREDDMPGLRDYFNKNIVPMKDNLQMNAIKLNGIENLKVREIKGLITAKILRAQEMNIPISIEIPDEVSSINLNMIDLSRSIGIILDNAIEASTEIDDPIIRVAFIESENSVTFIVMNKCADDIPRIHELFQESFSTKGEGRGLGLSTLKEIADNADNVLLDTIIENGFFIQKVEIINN

Chain of S. aureus agr-IV (Q309Z2 entry or part of it): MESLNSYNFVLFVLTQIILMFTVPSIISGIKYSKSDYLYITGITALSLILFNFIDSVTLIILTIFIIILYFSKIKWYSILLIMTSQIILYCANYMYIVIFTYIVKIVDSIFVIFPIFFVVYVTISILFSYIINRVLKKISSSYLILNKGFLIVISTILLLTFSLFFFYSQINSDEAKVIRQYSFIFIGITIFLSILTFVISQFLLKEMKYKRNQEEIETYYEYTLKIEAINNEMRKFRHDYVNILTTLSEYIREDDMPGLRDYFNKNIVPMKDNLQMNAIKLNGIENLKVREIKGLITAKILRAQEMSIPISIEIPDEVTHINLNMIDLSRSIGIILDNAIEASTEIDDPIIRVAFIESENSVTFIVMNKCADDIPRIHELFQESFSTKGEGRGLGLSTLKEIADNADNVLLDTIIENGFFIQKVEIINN
Chain of S. aureus agr-III (O33590 entry or part of it): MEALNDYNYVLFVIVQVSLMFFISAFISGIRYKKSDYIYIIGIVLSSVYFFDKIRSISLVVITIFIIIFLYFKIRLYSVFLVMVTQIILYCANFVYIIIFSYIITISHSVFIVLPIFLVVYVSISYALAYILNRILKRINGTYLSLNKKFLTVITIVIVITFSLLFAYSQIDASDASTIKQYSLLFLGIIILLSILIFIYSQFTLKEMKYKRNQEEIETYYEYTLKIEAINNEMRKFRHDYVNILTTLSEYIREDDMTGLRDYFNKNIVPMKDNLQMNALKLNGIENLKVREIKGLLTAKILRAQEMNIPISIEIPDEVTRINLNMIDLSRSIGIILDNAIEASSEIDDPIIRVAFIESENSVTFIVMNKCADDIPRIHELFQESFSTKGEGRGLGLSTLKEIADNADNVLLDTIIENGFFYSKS
Chain of SA AgrC-II (O33587 entry or part of it): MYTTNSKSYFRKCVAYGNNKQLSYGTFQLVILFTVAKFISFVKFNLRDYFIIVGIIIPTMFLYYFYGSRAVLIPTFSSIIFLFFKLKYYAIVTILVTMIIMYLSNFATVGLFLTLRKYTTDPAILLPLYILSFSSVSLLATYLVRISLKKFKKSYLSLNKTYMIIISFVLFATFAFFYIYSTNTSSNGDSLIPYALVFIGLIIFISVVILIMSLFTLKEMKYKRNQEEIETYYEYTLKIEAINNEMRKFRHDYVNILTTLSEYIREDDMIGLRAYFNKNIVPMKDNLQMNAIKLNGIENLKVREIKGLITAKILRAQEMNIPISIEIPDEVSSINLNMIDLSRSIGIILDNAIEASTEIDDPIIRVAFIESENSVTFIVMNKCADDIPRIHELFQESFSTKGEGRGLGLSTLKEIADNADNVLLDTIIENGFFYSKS
Chain of S. aureus agr-II (O33587 entry or part of it): as above
Chain of S. epidermidis agr-I (Q5HMY3 entry or part of it): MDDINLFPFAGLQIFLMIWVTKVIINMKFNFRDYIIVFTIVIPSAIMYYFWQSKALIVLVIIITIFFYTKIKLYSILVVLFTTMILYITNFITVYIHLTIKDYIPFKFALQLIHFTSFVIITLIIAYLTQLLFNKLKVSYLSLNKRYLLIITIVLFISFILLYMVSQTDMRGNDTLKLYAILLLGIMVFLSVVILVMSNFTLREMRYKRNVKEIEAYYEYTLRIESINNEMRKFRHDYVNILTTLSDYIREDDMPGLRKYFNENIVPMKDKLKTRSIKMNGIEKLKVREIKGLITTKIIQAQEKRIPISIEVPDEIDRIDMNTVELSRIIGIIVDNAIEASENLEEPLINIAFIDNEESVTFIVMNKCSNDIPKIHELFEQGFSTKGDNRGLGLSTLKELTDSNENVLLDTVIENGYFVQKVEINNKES
Chain of S. aureus agr-I (O07911 entry or part of it): as the sequence (O07911 entry or part of it) above
Chain of SA AgrC-IV (Q309Z2 entry or part of it): as the sequence (Q309Z2 entry or part of it) above
Chain of S. epidermidis agr-II (Q8VSX5 entry or part of it): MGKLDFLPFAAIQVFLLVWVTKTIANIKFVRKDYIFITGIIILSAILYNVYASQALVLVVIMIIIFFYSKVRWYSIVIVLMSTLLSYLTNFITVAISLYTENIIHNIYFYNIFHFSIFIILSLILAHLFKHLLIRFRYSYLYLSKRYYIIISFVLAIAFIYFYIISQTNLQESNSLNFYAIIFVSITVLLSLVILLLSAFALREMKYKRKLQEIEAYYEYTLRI
Chain of S. epidermidis agr-III (Q8VSX2 entry or part of it): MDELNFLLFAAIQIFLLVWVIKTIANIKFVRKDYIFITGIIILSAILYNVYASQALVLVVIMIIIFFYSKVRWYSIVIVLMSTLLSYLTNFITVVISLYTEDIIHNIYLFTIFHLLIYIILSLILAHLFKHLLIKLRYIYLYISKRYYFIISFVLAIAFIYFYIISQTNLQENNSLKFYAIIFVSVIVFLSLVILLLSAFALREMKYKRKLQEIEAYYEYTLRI
Chain of SA AgrC-III (O33590 entry or part of it): as the sequence (O33590 entry or part of it) above
Chain of S. lugdunensis agr-I (Q8VSW5 entry or part of it): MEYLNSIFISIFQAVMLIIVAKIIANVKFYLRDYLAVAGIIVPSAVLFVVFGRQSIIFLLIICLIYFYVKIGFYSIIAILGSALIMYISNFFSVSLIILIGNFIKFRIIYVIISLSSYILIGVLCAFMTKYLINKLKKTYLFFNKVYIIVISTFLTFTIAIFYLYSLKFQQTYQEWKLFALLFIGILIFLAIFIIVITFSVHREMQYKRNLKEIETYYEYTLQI

Consider S. chromogenes AIP-I [compound 27], for which the “QS interaction in words (inhibition / activation), S. aureus agr-II” value on S. aureus agr-II is “potently inhibited”. The “QS interaction in words (inhibition / activation), S. lugdunensis agr-I” value on S. lugdunensis agr-I is given as “only weakly inhibited”. On S. aureus agr-III, the “QS interaction in words (inhibition / activation), S. aureus agr-III” value is recorded as “potently inhibited”. Moreover, the “QS interaction in words (inhibition / activation), S. epidermidis agr-I” value on S. epidermidis agr-I was “potently inhibited”. The “QS interaction in words (inhibition / activation), S. aureus agr-I” value on S. aureus agr-I is reported as “potently inhibited”. Further, the IC50 is 350 ± 85 nM at SA AgrC-IV, 60 ± 13 nM at SA AgrC-III and 200 ± 13 nM at SA AgrC-II. Also, the “QS interaction in words (inhibition / activation), S. aureus agr-IV” value on S. aureus agr-IV is “potently inhibited”. Further, the “QS interaction in words (inhibition / activation), S. epidermidis agr-III” value on S. epidermidis agr-III is “potently inhibited”. At S. epidermidis agr-II, the “QS interaction in words (inhibition / activation), S. epidermidis agr-II” value is given as “potently inhibited”.

Consider S. hyicus AIP-I [compound 26], for which, on S. aureus agr-II, the “QS interaction in words (inhibition / activation), S. aureus agr-II” value is “potently inhibited”. Besides, the “QS interaction in words (inhibition / activation), S. lugdunensis agr-I” value at S. lugdunensis agr-I is listed as “only weakly inhibited”. Also, the “QS interaction in words (inhibition / activation), S. aureus agr-III” value at S. aureus agr-III is reported as “potently inhibited”. On S. epidermidis agr-I, the “QS interaction in words (inhibition / activation), S. epidermidis agr-I” value was “potently inhibited”. Besides, the “QS interaction in words (inhibition / activation), S. aureus agr-I” value at S. aureus agr-I was “potently inhibited”. The IC50 at SA AgrC-IV was 180 ± 33 nM; at SA AgrC-III it was 4 ± 0.8 nM; on SA AgrC-II, 350 ± 90 nM. In addition, at S. aureus agr-IV, the “QS interaction in words (inhibition / activation), S. aureus agr-IV” value is on record as “potently inhibited”. Further, the “QS interaction in words (inhibition / activation), S. epidermidis agr-III” value at S. epidermidis agr-III is listed as “potently inhibited”. In addition, the “QS interaction in words (inhibition / activation), S. epidermidis agr-II” value on S. epidermidis agr-II was “potently inhibited”.

On to “S. lugdunensis AIP-II (DMCNGYF; not fully specified; cyclic: thiolactone between Cys3 side-chain thiol and C-terminal Phe7 carboxyl; free N-terminus) [compound 9]”, for which the IC50 with SA AgrC-I is greater than 1000 nM.

For the substance “S. saprophyticus AIP-I (INPCFGYT; not fully specified; cyclic: thiolactone between Cys4 side-chain thiol and C-terminal Thr8 carboxyl; free N-terminus) [compound 19]”, the IC50 with SA AgrC-I was 360 ± 30 nM.

With S. simulans AIP-II P4A [compound 39], on S. aureus agr-III, the “QS interaction in words (inhibition / activation), S. aureus agr-III” value is recorded as “activator”. The “QS interaction in words (inhibition / activation), S. aureus agr-IV” value at S. aureus agr-IV is “activator”.
